Patent publication US11584737B2, “Heterocyclic compound” (TAKEDA PHARMACEUTICAL COMPANY LIMITED, priority 2018, dated 2023)

biological target: T1, CDK12/CycK complex (Homo sapiens, UniProt Q9NYV4); assay: Measurement of CDK12 inhibitory activity by binding assay (BODIPY-FL labeled AT-7519 high concentration conditions, 1320 nM); conditions: inhibitory rate against CDK12 at 1 μM test compound, 1320 nM BODIPY-FL-labeled AT-7519, 8 nM CDK12/CycK
Method: (4) Measurement of CDK12 Inhibitory Activity by Binding Assay (BODIPY-FL Labeled AT-7519 High Concentration Conditions)
(§1) His-tagged CDK12/CycK complex was blended with a binding assay buffer supplemented with BODIPY-FL labeled AT-7519, terbium-labeled streptavidin and biotin-labeled anti-histidine antibody. This solution was added to an assay plate containing a test compound dispensed therein, and the mixture was left standing for 120 min at room temperature. The final concentration of CDK12/CycK complex, BODIPY-FL-labeled AT-7519, terbium-labeled streptavidin and biotin-labeled anti-histidine antibody was set to 8 nM, 1320 nM, 0.2 nM, and 0.4 nM, respectively. The fluorescence intensity derived from terbium and BODIPY-FL was measured using Envision. The signal value of each well was determined using the TR-FRET ratio calculated by the following formula. TR-FRET ratio=(fluorescence value of BODIPY-FL)÷(fluorescence value of terbium)
(§2) The inhibitory rate (%) of the test compound against CDK12 was calculated by the following formula. Inhibitory rate (%)=(1−(TR-FRET ratio of test compound−blank)÷(control−blank))×100
The TR-FRET ratio of the CDK12 enzyme reaction mixture under compound non-addition conditions is indicated as control, and the TR-FRET ratio under 30 μM AT-7519 addition conditions is indicated as blank.
The inhibitory rate of the test compound against CDK12 at 1 μM is shown below.

T1 sequence (Q9NYV4 whole entry, species assumed): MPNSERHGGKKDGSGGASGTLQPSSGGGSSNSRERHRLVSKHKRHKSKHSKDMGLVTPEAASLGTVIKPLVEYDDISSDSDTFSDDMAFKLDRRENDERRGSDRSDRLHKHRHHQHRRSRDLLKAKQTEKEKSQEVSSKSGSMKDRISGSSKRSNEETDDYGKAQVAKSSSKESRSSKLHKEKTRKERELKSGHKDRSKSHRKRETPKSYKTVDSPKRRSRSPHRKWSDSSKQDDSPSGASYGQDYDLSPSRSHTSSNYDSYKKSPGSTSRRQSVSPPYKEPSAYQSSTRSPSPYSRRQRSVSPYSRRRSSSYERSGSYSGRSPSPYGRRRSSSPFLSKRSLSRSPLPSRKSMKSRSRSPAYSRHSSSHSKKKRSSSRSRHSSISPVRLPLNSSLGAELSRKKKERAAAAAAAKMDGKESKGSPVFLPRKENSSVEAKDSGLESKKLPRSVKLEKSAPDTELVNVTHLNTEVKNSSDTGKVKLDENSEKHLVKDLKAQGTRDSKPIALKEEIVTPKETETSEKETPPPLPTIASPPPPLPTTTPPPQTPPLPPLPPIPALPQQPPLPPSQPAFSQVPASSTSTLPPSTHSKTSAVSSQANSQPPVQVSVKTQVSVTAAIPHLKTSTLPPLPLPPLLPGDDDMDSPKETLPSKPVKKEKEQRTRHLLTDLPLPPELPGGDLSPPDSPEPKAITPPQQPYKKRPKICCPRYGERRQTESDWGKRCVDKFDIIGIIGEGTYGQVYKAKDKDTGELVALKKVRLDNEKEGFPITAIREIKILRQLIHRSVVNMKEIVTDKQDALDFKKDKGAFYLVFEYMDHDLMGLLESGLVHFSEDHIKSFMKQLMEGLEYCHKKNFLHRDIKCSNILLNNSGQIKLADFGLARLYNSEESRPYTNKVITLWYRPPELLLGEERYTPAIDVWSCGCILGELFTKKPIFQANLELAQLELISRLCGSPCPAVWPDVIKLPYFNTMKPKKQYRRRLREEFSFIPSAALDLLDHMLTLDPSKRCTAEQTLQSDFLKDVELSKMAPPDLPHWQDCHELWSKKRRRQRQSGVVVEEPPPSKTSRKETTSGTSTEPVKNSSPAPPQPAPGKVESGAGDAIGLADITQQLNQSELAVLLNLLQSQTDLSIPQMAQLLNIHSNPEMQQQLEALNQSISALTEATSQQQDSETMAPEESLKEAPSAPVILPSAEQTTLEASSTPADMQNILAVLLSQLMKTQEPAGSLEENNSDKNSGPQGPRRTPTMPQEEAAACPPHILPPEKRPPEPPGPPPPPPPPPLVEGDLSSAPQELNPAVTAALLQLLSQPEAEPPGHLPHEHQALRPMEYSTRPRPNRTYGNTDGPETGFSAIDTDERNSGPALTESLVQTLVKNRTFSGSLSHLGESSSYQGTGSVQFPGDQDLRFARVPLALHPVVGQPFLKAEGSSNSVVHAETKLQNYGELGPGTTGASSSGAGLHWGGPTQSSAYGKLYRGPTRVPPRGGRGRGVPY
T1 sequence (O75909 whole entry partner, species assumed): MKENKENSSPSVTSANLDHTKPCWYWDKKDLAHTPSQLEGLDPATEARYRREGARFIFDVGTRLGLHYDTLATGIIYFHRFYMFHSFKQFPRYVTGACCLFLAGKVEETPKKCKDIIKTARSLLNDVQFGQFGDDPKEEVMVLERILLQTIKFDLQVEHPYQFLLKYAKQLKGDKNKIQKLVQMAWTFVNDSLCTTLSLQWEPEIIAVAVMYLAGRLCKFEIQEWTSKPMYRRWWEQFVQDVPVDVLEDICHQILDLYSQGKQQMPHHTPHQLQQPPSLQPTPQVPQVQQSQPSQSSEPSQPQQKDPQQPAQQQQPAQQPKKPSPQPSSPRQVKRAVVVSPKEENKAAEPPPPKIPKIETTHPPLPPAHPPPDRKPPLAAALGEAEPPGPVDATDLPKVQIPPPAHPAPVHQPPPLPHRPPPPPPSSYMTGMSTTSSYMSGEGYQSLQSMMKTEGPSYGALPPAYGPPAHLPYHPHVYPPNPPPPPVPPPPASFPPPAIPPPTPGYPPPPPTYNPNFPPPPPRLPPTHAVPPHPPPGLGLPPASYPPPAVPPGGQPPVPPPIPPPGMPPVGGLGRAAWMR

Row | SMILES | inhibition at 1 µM [%]
1 | Cn1ccc(-c2cnc(N(C(=O)NCC(F)(F)F)[C@H]3CC[C@H](Nc4ncc(C(F)(F)F)c(-c5ccn(C(F)F)n5)n4)CC3)cn2)cc1=O [Example 768, 1-(trans-4-((4-(1-(difluoromethyl)-1H-pyrazol-3-yl)-5-(trifluoromethyl)-pyrimidin-2-yl)amino)-cyclohexyl)-1-(5-(1-methyl-2-oxo-1,2-dihydropyridin-4-yl)-pyrazin-2-yl)-3-(2,2,2-trifluoroethyl)urea] | 92
2 | COc1ncc(-c2ccc(N(C(=O)NCC(F)F)[C@H]3CC[C@H](Nc4ncc(C(F)(F)F)c(-c5cncc(S(C)(=O)=O)c5)n4)CC3)nc2)cn1 [Example 741, 3-(2,2-difluoroethyl)-1-(trans-4-((4-(5-(methane-sulfonyl)pyridin-3-yl)-5-(trifluoromethyl)pyrimidin-2-yl)amino)cyclohexyl)-1-(5-(2-methoxypyrimidin-5-yl)pyridin-2-yl)urea] | 87
3 | COc1ncc(-c2cnc(N(C(=O)NCC(F)F)[C@H]3CC[C@H](Nc4ncc(C(F)(F)F)c(-c5n[nH]c(C)c5Cl)n4)CC3)cn2)cn1 [Example 745, 1-(trans-4-((4-(4-chloro-5-methyl-1H-pyrazol-3-yl)-5-(trifluoromethyl)pyrimidin-2-yl)amino)cyclohexyl)-3-(2,2-difluoroethyl)-1-(5-(2-methoxypyrimidin-5-yl)pyrazin-2-yl)urea] | 94
4 | COc1ncc(-c2cnc(N(C(=O)N3CC(C)(O)C3)[C@H]3CC[C@H](Nc4ncc(C(F)(F)F)c(-c5n[nH]cc5Cl)n4)CC3)cn2)cn1 [Example 746, N-(trans-4-((4-(4-chloro-1H-pyrazol-3-yl)-5-(trifluoro-methyl)pyrimidin-2-yl)-amino)cyclohexyl)-3-hydroxy-N-(5-(2-methoxypyrimidin-5-yl)pyrazin-2-yl)-3-methylazetidine-1-carboxamide] | 91
5 | COCCNC(=O)N(c1cnc(-c2cnn(C)c2)cn1)[C@H]1CC[C@H](Nc2ncc(C(F)(F)F)c(-c3nn(C(F)F)cc3Cl)n2)CC1 [Example 756, 1-(trans-4-((4-(4-chloro-1-(difluoromethyl)-1H-pyrazol-3-yl)-5-(trifluoromethyl)-pyrimidin-2-yl)amino)cyclo-hexyl)-3-(2-methoxyethyl)-1-(5-(1-methyl-1H-pyrazol-4-yl)pyrazin-2-yl)urea] | 90
6 | COCCNC(=O)N(c1cnc(-c2cnc(OC)nc2)cn1)[C@H]1CC[C@H](Nc2ncc(C(F)(F)F)c(-c3nn(C(F)F)cc3Cl)n2)CC1 [Example 752, 1-(trans-4-((4-(4-chloro-1-(difluoromethyl)-1H-pyrazol-3-yl)-5-(trifluoromethyl)-pyrimidin-2-yl)amino)cyclo-hexyl)-3-(2-methoxyethyl)-1-(5-(2-methoxypyrimidin-5-yl)pyrazin-2-yl)urea] | 90
7 | COc1ncc(-c2cnc(N(C(=O)NCc3ccccc3)[C@H]3CC[C@H](Nc4ncc(C(F)(F)F)c(OC5(C)COC5)n4)CC3)cn2)cn1 [Example 640, 3-benzyl-1-(5-(2-methoxypyrimidin-5-yl)pyrazin-2-yl)-1-(trans-4-((4-((3-methyloxetan-3-yl)oxy)-5-(trifluoromethyl)pyrimidin-2-yl)amino)cyclohexyl)urea] | 105
8 | COc1ncc(-c2cnc(N(C(=O)NCC(F)F)[C@H]3CC[C@H](Nc4ncc(C(F)(F)F)c(OC5(C)COC5)n4)CC3)cn2)cn1 [Example 777, 3-(2,2-difluoroethyl)-1-(5-(2-methoxypyrimidin-5-yl)pyrazin-2-yl)-1-(trans-4-((4-((3-methyloxetan-3-yl)oxy)-5-(trifluoromethyl)pyrimidin-2-yl)amino)cyclohexyl)urea] | 92

The next lines start with the values.

Row | inhibition at 1 µM [%] | SMILES
9 | 99 | CCCC(=O)N(c1cnc(-c2cnn(C)c2)cn1)[C@H]1CC[C@H](Nc2ncc(C(F)(F)F)c(-c3cncc(S(C)(=O)=O)c3)n2)CC1 [Example 814, N-(trans-4-((4-(5-(methanesulfonyl)pyridin-3-yl)-5-(trifluoromethyl)pyrimidin-2-yl)amino)cyclohexyl)-N-(5-(1-methyl-1H-pyrazol-4-yl)pyrazin-2-yl)butanamide]
10 | 95 | COCC(=O)N(c1cnc(-c2cnn(C)c2)cn1)[C@H]1CC[C@H](Nc2ncc(C(F)(F)F)c(-c3cncc(S(C)(=O)=O)c3)n2)CC1 [Example 812, N-(trans-4-((4-(5-(methanesulfonyl)pyridin-3-yl)-5-(trifluoromethyl)pyrimidin-2-yl)amino)cyclohexyl)-2-methoxy-N-(5-(1-methyl-1H-pyrazol-4-yl)pyrazin-2-yl)acetamide]
11 | 95 | COCC(=O)N(c1cnc(-c2cnc(OC)nc2)cn1)[C@H]1CC[C@H](Nc2ncc(C(F)(F)F)c(-c3n[nH]cc3Cl)n2)CC1 [Example 796, N-(trans-4-((4-(4-chloro-1H-pyrazol-3-yl)-5-(trifluoromethyl)pyrimidin-2-yl)amino)cyclohexyl)-2-methoxy-N-(5-(2-methoxypyrimidin-5-yl)pyrazin-2-yl)acetamide]
12 | 92 | COCC(=O)N(c1cnc(-c2cnc(OC)nc2)cn1)[C@H]1CC[C@H](Nc2ncc(C(F)(F)F)c(-c3ccn(C(F)F)n3)n2)CC1 [Example 797, N-(trans-4-((4-(1-(difluoro-methyl)-1H-pyrazol-3-yl)-5-(trifluoromethyl)pyrimidin-2-yl)amino)cyclohexyl)-2-methoxy-N-(5-(2-methoxypyrimidin-5-yl)pyrazin-2-yl)acetamide]
13 | 99 | COc1ncc(-c2cnc(N(C(=O)OCCN3CCOCC3)[C@H]3CC[C@H](Nc4ncc(C(F)(F)F)c(-c5cncc(S(C)(=O)=O)c5)n4)CC3)cn2)cn1 [Example 808, 2-(morpholin-4-yl)ethyl (trans-4-((4-(5-(methanesulfonyl)-pyridin-3-yl)-5-(trifluoro-methyl)pyrimidin-2-yl)amino)cyclohexyl) (5-(2-methoxypyrimidin-5-yl)pyrazin-2-yl)carbamate]
14 | 94 | COCC(=O)N(c1cnc(-c2cnn(C)c2)cn1)[C@H]1CC[C@H](Nc2ncc(C(F)(F)F)c(-c3ccn(C(F)F)n3)n2)CC1 [Example 811, N-(trans-4-((4-(1-(difluoromethyl)-1H-pyrazol-3-yl)-5-(trifluoromethyl)pyrimidin-2-yl)amino)cyclohexyl)-2-methoxy-N-(5-(1-methyl-1H-pyrazol-4-yl)pyrazin-2-yl)acetamide]
15 | 91 | COCCOC(=O)N(c1cnc(-c2cnc(OC)nc2)cn1)[C@H]1CC[C@H](Nc2ncc(C(F)(F)F)c(-c3cncc(S(C)(=O)=O)c3)n2)CC1 [Example 800, 2-methoxyethyl (trans-4-((4-(5-(methanesulfonyl)pyridin-3-yl)-5-(trifluoromethyl)pyrimidin-2-yl)amino)cyclohexyl) (5-(2-methoxypyrimidin-5-yl)pyrazin-2-yl)carbamate]

biological target: T1, CDK12/CycK complex; assay: Measurement of CDK12 inhibitory activity by binding assay (TR-FRET, 66 nM BODIPY-FL-labeled AT-7519); conditions: inhibitory rate against CDK12 at 1 μM test compound, 66 nM BODIPY-FL-labeled AT-7519, 2 nM CDK12/CycK
Method: Experimental Example 1: CDK12 Binding Assay
(3) Measurement of CDK12 Inhibitory Activity by Binding Assay
as §1, with “added to” for “blended with”, “antibody, and the mixture was stood for not less than 60 min at room temperature.” for “antibody.”, “2” for “8”, “66” for “1320”
as §2
The TR-FRET ratio of the CDK12 enzyme reaction mixture under compound non-addition conditions is indicated as control, and the TR-FRET ratio under 3 μM AT-7519 addition conditions is indicated as blank.
The inhibitory rate of the test compound against CDK12 at […] is shown below.

Row | inhibition at 1 µM [%] | SMILES
16 | 104 | COc1ncc(-c2ccc(N(C(=O)NCc3ccccc3)[C@H]3CC[C@H](Nc4ncc(C#N)c(N5CCCC(O)CC5)n4)CC3)nc2)cn1 (stereo partly drawn) [Example 595, 3-benzyl-1-(trans-4-((5-cyano-4-(4-hydroxyazepan-1-yl)pyrimidin-2-yl)amino)cyclohexyl)-1-(5-(2-methoxypyrimidin-5-yl)pyridin-2-yl)urea]
17 | 96 | COc1ncc(-c2cnc(N(C(=O)NCc3ccccc3)[C@H]3CC[C@H](Nc4ncc(C(F)(F)F)c(OC5COC5)n4)CC3)nc2)cn1 [Example 606, 3-benzyl-1-(2′-methoxy-5,5′-bipyrimidin-2-yl)-1-(trans-4-((4-(oxetan-3-yloxy)-5-(trifluoromethyl)pyrimidin-2-yl)amino)cyclohexyl)urea]
18 | 81 | Cn1cc(-c2cnc(N(C(=O)NCc3ccccc3)[C@H]3CC[C@H](Nc4ncc(C#N)c(-c5ccc(C#N)s5)n4)CC3)cn2)cn1 [Example 495, 3-benzyl-1-(trans-4-((5-cyano-4-(5-cyano-2-thienyl)pyrimidin-2-yl)amino)cyclohexyl)-1-(5-(1-methyl-1H-pyrazol-4-yl)pyrazin-2-yl)urea]
